For this test, the system named is differentiated hBMSc. The test can be described thus: Effect of IL-1β and cabergoline on GDNF production and secretion (ELISA). In kind it is cell-based, human. The settings on record: cabergoline 130 pg/ml, IL-1β 100 pg/ml, added 24 hours after initiation of differentiation, 48 hours. The procedure:
Astrocyte differentiation: To induce astrocyte differentiation, 1×10^6 cells were cultured in […]. Cells were replaced with pre-differentiation medium for 48 hours (DMEM supplemented with SPN, 2 mM L-glutamine, 20 ng/ml human epidermal growth factor hEGF (R& D, Systems, Minneapolis, Minn.), 20 ng/ml human basic fibroblast growth factor (hbFGF) and N2 supplement (insulin 5 μg/ml, progesterone 20 nM, putrescin 100 μM, selenium 30 nM, transferrin 100 μg/ml). After 48 hours, the pre-differentiation medium was changed to differentiation medium, (DMEM supplemented with SPN, 2 mM L-glutamine, 1 mM dibutyryl cyclic AMP dbcAMP, 0.5 mM isobutylmethylxanthine IBMX (Sigma-Aldrich, St. Louis, Mo., USA), 5 ng/ml human platelet derived growth factor PDGF (peprotech), and 50 ng/ml human neuregulin 1-β1 NRG1-β1-GGF-2). […]
GDNF and BDNF analysis: At the end of the differentiating procedure described above, supernatant was collected from the plate and cells were harvested and counted. The amount of GDNF or BDNF in the cell's lysate and culture supernatants was quantified by using a GDNF or BDNF ImmunoAssay System (Promega) according to the manufacture's protocol. The absorbance at 450 nm was recorded on the Microplate Reader (BioRad Model 550) and the values were used to produce the curve of the GDNF or BDNF standard. […] ELISA results were calculated according to 10^6 cells per plate.
A general note: In an ELISA, binding on a coated surface is turned into a signal by an enzyme label.

Consider `C=CCN1C[C@H](C(=O)N(CCCN(C)C)C(=O)NCC)C[C@@H]2c3cccc4[nH]cc(c34)C[C@H]21` [cabergoline], for which the “production and secretion of GDNF by differentiated cells following addition” value is “marked enhanced production and secretion of GDNF”.
“IL-1beta: factor known to upregulate GDNF, added to the differentiation medium”: the “production and secretion of GDNF by differentiated cells following addition” value was “marked enhanced production and secretion of GDNF”.

The values above are taken from patent publication US10869899B2, “Isolated cells and populations comprising same for the treatment of CNS diseases” (Ramot at Tel-Aviv University Ltd., priority 2005, dated 2020).
